Test results as given in the supplement of paper PMC11451515.

System: SEM cells
Test: cell viability relative to DMSO control; higher = less cytotoxic
Details: 48 h
How it was run: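 In 1536-well plates, 5 μl of leukemia cells were seeded per well: 500 cells/well for NOMO1 or SEM and 1000 cells/well for P12-Ichikawa. Each line had first been adapted for at least four passages in each medium. Library compounds in DMSO were pin-dosed at 11 threefold concentrations between 47 μM and 0.79 nM, and CellTiter-Glo One luminescence was read after 48 h at 37°C. Viability is a per-plate percentage relative to DMSO wells, with cell-free wells as background.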

[1] = HPLM + 10% dialyzed FBS, 0.000781 µM
[2] = HPLM + 10% dialyzed FBS, 0.00234 µM
[3] = HPLM + 10% dialyzed FBS, 0.00702 µM
[4] = HPLM + 10% dialyzed FBS, 0.0211 µM
[5] = HPLM + 10% dialyzed FBS, 0.0632 µM
[6] = HPLM + 10% dialyzed FBS, 0.19 µM
[7] = HPLM + 10% dialyzed FBS, 0.569 µM
[8] = HPLM + 10% dialyzed FBS, 1.71 µM
[9] = HPLM + 10% dialyzed FBS, 5.12 µM
[10] = HPLM + 10% dialyzed FBS, 15.4 µM
[11] = HPLM + 10% dialyzed FBS, 46.1 µM
[12] = RPMI 5 mM glucose + 10% FBS, 0.000781 µM
[13] = RPMI 5 mM glucose + 10% FBS, 0.00234 µM
[14] = RPMI 5 mM glucose + 10% FBS, 0.00702 µM
[15] = RPMI 5 mM glucose + 10% FBS, 0.0211 µM
[16] = RPMI 5 mM glucose + 10% FBS, 0.0632 µM
[17] = RPMI 5 mM glucose + 10% FBS, 0.19 µM
[18] = RPMI 5 mM glucose + 10% FBS, 0.569 µM
[19] = RPMI 5 mM glucose + 10% FBS, 1.71 µM
[20] = RPMI 5 mM glucose + 10% FBS, 5.12 µM
[21] = RPMI 5 mM glucose + 10% FBS, 15.4 µM
[22] = RPMI 5 mM glucose + 10% FBS, 46.1 µM
[23] = RPMI 5 mM glucose + 10% dialyzed FBS, 0.000781 µM
[24] = RPMI 5 mM glucose + 10% dialyzed FBS, 0.00234 µM
[25] = RPMI 5 mM glucose + 10% dialyzed FBS, 0.00702 µM
[26] = RPMI 5 mM glucose + 10% dialyzed FBS, 0.0211 µM
[27] = RPMI 5 mM glucose + 10% dialyzed FBS, 0.0632 µM
[28] = RPMI 5 mM glucose + 10% dialyzed FBS, 0.19 µM
[29] = RPMI 5 mM glucose + 10% dialyzed FBS, 0.569 µM
[30] = RPMI 5 mM glucose + 10% dialyzed FBS, 1.71 µM
[31] = RPMI 5 mM glucose + 10% dialyzed FBS, 5.12 µM
[32] = RPMI 5 mM glucose + 10% dialyzed FBS, 15.4 µM
[33] = RPMI 5 mM glucose + 10% dialyzed FBS, 46.1 µM

SMILES | cell viability [1] | cell viability [2] | cell viability [3] | cell viability [4] | cell viability [5] | cell viability [6] | cell viability [7] | cell viability [8] | cell viability [9] | cell viability [10] | cell viability [11] | cell viability [12] | cell viability [13] | cell viability [14] | cell viability [15] | cell viability [16] | cell viability [17] | cell viability [18] | cell viability [19] | cell viability [20] | cell viability [21] | cell viability [22] | cell viability [23] | cell viability [24] | cell viability [25] | cell viability [26] | cell viability [27] | cell viability [28] | cell viability [29] | cell viability [30] | cell viability [31] | cell viability [32] | cell viability [33]
CN1CC/C(CC1)=C3\c4ccccc4CC(=O)c2sccc23 | 107% | 110% | 127% | 121% | 119% | 122% | 127% | 133% | 142% | 123% | 110% | 115% | 124% | 123% | 114% | 127% | 125% | 126% | 116% | 145% | 129% | 103% | 117% | 114% | 126% | 104% | 119% | 129% | 135% | 108% | 128% | 106% | 113%
CCCc1nc2c(C)cc(-c3nc4ccccc4n3C)cc2n1Cc1ccc(-c2ccccc2C(=O)O)cc1 | 117% | 115% | 123% | 120% | 124% | 140% | 100% | 71.4% | 127% | 140% | 144% | 114% | 121% | 152% | 133% | 124% | 124% | 101% | 84.1% | 159% | 138% | 137% | 103% | 138% | 119% | 92.4% | 120% | 125% | 87.8% | 64% | 120% | 116% | 132%
NC(=O)c1ccc(-c2nc(-c3ccc4c(c3)OCO4)c(-c3ccccn3)[nH]2)cc1 | 123% | 116% | 128% | 25.6% | 130% | 121% | 124% | 125% | 128% | 129% | 122% | 93.4% | 85.5% | 98.2% | 9.45% | 89.5% | 86.8% | 92.1% | 93.7% | 102% | 86.3% | 66.9% | 108% | 123% | 110% | 18.9% | 120% | 111% | 128% | 131% | 123% | 134% | 102%
O=C(O)c1ccc(-c2c[nH]c3ncc(-c4ccccc4)cc23)cc1C1CCCC1 | 98% | 103% | 113% | 113% | 118% | 125% | 99% | 108% | 82.4% | 63.5% | 66.6% | 111% | 110% | 111% | 109% | 121% | 113% | 101% | 91.8% | 69.8% | 47.1% | 43.2% | 114% | 116% | 119% | 138% | 114% | 115% | 123% | 101% | 65.3% | 44.1% | 35.3%
CC(Cc1ccc(O)c(O)c1)(NN)C(=O)O (stereo unspecified) | 103% | 121% | 130% | 125% | 122% | 131% | 105% | 112% | 108% | 119% | 79.9% | 117% | 130% | 122% | 127% | 126% | 119% | 99% | 121% | 110% | 113% | 76.1% |  |  |  |  |  |  |  |  |  |  | 
CO[C@H]1/C=C/O[C@@]2(C)Oc3c(C)c(O)c4c(O)c(c(/C=N/N5CCN(C)CC5)c(O)c4c3C2=O)NC(=O)/C(C)=C\C=C\[C@H](C)[C@H](O)[C@@H](C)[C@@H](O)[C@@H](C)[C@H](OC(C)=O)[C@@H]1C | 107% | 121% | 130% | 126% | 119% | 121% | 119% | 113% | 102% | 96.1% | 67% | 62.7% | 84.8% | 87.1% | 82.4% | 77.1% | 78.6% | 75.4% | 74.9% | 55% | 56% | 23.5% | 108% | 104% | 104% | 103% | 109% | 108% | 123% | 111% | 102% | 90.4% | 66.5%
COc1cccc2c(NCc3ccccc3)nc(-n3c(N)nc4ccccc43)nc12 | 81.2% | 88.4% | 104% | 93.6% | 89.1% | 90.6% | 83.2% | 92.2% | 64.1% | 29.6% | 8.4% | 95.2% | 92.8% | 98.7% | 97.5% | 94.8% | 87.6% | 95% | 72.1% | 54.9% | 24.3% | 7.18% | 81.8% | 73.7% | 91.9% | 99.8% | 111% | 106% | 85.9% | 76.5% | 65.1% | 45.2% | 9.78%
CCC[C@@H](C=O)NC(=O)[C@H](CC(C)C)NC(=O)[C@H](CC(C)C)NC(=O)OCc1ccccc1 | 107% | 111% | 106% | 121% | 124% | 117% | 132% | 92.7% | 8.49% | 8.38% | 6.36% | 105% | 103% | 125% | 111% | 129% | 130% | 55.3% | 8.42% | 8.05% | 8.14% | 6.25% | 97.6% | 101% | 120% | 116% | 134% | 119% | 118% | 45.7% | 9.18% | 8.63% | 6.53%
C/C(=C\c1csc(C)n1)[C@@H]1C[C@@H]2O[C@]2(C)CCC[C@H](C)[C@H](O)[C@@H](C)C(=O)C(C)(C)[C@@H](O)CC(=O)O1 | 20.1% | 19.1% | 23% | 36.1% | 21% | 22% | 19.7% | 19.5% | 18.2% | 20.3% | 19.9% | 11.4% | 15.3% | 17.3% | 19.1% | 16.8% | 17.3% | 15.8% | 14.1% | 13.1% | 14.9% | 16.9% | 20.7% | 18.4% | 14% | 50.3% | 20.6% | 16.9% | 14.3% | 16.2% | 16.6% | 16.3% | 15.6%
Cc1cc(SCc2sc(-c3ccc(C(F)(F)F)cc3)nc2C)ccc1OCC(=O)O | 98.4% | 102% | 98.3% | 113% | 102% | 109% | 113% | 105% | 99.3% | 48.9% | 98.4% | 94.3% | 101% | 89.4% | 102% | 102% | 105% | 100% | 104% | 114% | 57.5% | 93.5% | 99.9% | 101% | 96.1% | 97% | 109% | 92.5% | 102% | 109% | 99.4% | 48.3% | 97.9%
Cn1cc(-c2cnn3c(N)c(Br)c([C@@H]4CCCNC4)nc23)cn1 | 75.1% | 93.2% | 94.8% | 86.4% | 93.6% | 93.6% | 71.3% | 29.1% | 19.4% | 16.7% | 8.44% | 87.4% | 99.9% | 101% | 94.4% | 91.8% | 93.6% | 96.6% | 63% | 22.4% | 16.3% | 7.88% | 76.8% | 90.9% | 84.6% | 88.9% | 83.6% | 94.2% | 69.5% | 31.3% | 13.2% | 12.8% | 7.35%
CC(=O)Oc1cc2c(s1)CCN(C(C(=O)C1CC1)c1ccccc1F)C2.Cl (stereo unspecified) | 84.3% | 102% | 103% | 113% | 115% | 112% | 110% | 122% | 120% | 101% | 68.5% | 71.3% | 96.9% | 88.7% | 96.7% | 90.8% | 101% | 94.2% | 100% | 101% | 82.1% | 53.3% | 76.1% | 106% | 103% | 111% | 107% | 114% | 110% | 117% | 115% | 78.6% | 54.4%
CC1(C)Cc2c(sc(NC(=S)NC(=O)c3ccccc3)c2C(=O)O)CO1 | 74.1% | 89.5% | 91.9% | 89.1% | 96.7% | 98.3% | 97.6% | 108% | 101% | 88.3% | 101% | 94% | 109% | 108% | 93.1% | 112% | 112% | 110% | 113% | 101% | 105% | 106% | 65.2% | 84% | 85.4% | 87.8% | 96.6% | 88.3% | 95.4% | 91.7% | 89.6% | 102% | 88.5%
OC1=CC2=C(C(=O)\C=C(/O2)C3=CC=CC=C3)C(=C1O)O | 105% | 116% | 106% | 103% | 111% | 109% | 104% | 93.3% | 77.5% | 25.6% | 23.8% |  |  |  |  |  |  |  |  |  |  |  | 108% | 94.4% | 102% | 94.5% | 104% | 99.5% | 106% | 102% | 69.5% | 16.7% | 14.6%
COc1ccccc1OCCNCC(O)COc1cccc2[nH]c3ccccc3c12 (stereo unspecified) | 114% | 131% | 105% | 126% | 115% | 123% | 124% | 134% | 115% | 113% | 87.3% | 107% | 114% | 98.6% | 118% | 125% | 123% | 121% | 133% | 124% | 96.3% | 91.6% | 115% | 117% | 91.8% | 119% | 120% | 132% | 119% | 128% | 118% | 107% | 93.5%
Cn1c(=O)c2[nH]cnc2n(C)c1=O | 102% | 112% | 107% | 109% | 108% | 110% | 98.6% | 117% | 105% | 110% | 102% | 104% | 107% | 110% | 98.1% | 98.2% | 103% | 99.7% | 94.8% | 110% | 99% | 97.2% | 98.8% | 126% | 102% | 115% | 124% | 113% | 106% | 114% | 105% | 124% | 104%
